According to patent US7598382B2, “Aryl substituted imidazoquinolines” (Coley Pharmaceutical Group, Inc., priority 2002, dated 2009):

Structure (SMILES) | melting point [°C]
CCOCc1nc2c(N)nc3cc(-c4cncc(CO)c4)ccc3c2n1CCCOC [Example 167, 2-Ethoxymethyl-1-(3-methoxypropyl)-7-(5-hydroxymethylpyridin-3-yl)-1H-imidazo[4,5-c]quinolin-4-amine] | 198 to 199
CCOCc1nc2c(N)nc3cc(-c4ccco4)ccc3c2n1CCCOC [Example 168, 2-Ethoxymethyl-7-(furan-2-yl)-1-(3-methoxypropyl)-1H-imidazo[4,5-c]quinolin-4-amine] | 144 to 145
CCOCc1nc2c(N)nc3cc(-c4ccc(Cl)cc4)ccc3c2n1CCCOC [Example 169, 7-(4-Chlorophenyl)-2-ethoxymethyl-1-(3-methoxypropyl)-1H-imidazo[4,5-c]quinolin-4-amine] | 188 to 190
CCOCc1nc2c(N)nc3cc(-c4ccc(C(=O)N5CCOCC5)cc4)ccc3c2n1CCCOC [Example 170, {4-[4-Amino-2-ethoxymethyl-1-(3-methoxypropyl)-1H-imidazo[4,5-c]quinolin-7-yl]phenyl}morpholin-4-ylmethanone] | 163 to 165
CCOCc1nc2c(N)nc3cc(-c4cccc(C(=O)NCC(C)C)c4)ccc3c2n1CCCOC [Example 171, 3-[4-Amino-2-ethoxymethyl-1-(3-methoxypropyl)-1H-imidazo[4,5-c]quinolin-7-yl]-N-(2-methylpropyl)benzamide] | 209 to 210
CCOCc1nc2c(N)nc3cc(-c4ccc(S(=O)(=O)CC)cc4)ccc3c2n1CCCOC [Example 172, 7-[(4-Ethanesulfonyl)phenyl]-2-ethoxymethyl-1-(3-methoxypropyl)-1H-imidazo[4,5-c]quinolin-4-amine] | 156 to 158
CCOCc1nc2c(N)nc3cc(-c4ccc(OC(C)C)cc4)ccc3c2n1CCCOC [Example 173, 2-Ethoxymethyl-7-[4-(2-propoxy)phenyl]-1-(3-methoxypropyl)-1H-imidazo[4,5-c]quinolin-4-amine] | 175 to 177
COCCc1nc2c(N)nc3cc(-c4ccncc4)ccc3c2n1CCCN1CCCC1=O [Example 184, 1-{3-[4-Amino-2-(2-methoxyethyl)-7-(pyridin-4-yl)-1H-imidazo[4,5-c]quinolin-1-yl]propyl}pyrrolidin-2-one] | 232 to 235
COCCc1nc2c(N)nc3cc(-c4cccc(NS(C)(=O)=O)c4)ccc3c2n1CCCN1CCCC1=O [Example 186, N-(3-{4-Amino-2-(2-methoxyethyl)-1-[3-(2-oxopyrrolidin-1-yl)propyl]-1H-imidazo[4,5-c]quinolin-7-yl}phenyl)methanesulfonamide] | 210 to 213

Further lines, results first:

melting point [°C] | Structure (SMILES)
174 to 176 | CCOCc1nc2c(N)nc3cc(-c4cccc(C(=O)N5CCOCC5)c4)ccc3c2n1CCCOC [Example 174, {3-[4-Amino-2-ethoxymethyl-1-(3-methoxypropyl)-1H-imidazo[4,5-c]quinolin-7-yl]phenyl}morpholin-4-ylmethanone]
197 to 198 | CCOCc1nc2c(N)nc3cc(-c4cccnc4)ccc3c2n1CC1CCN(C(=O)OC(C)(C)C)CC1 [Example 176, tert-Butyl 4-{[4-amino-2-ethoxymethyl-7-(pyridin-3-yl)-1H-imidazo[4,5-c]quinolin-1-yl]methyl}piperidine-1-carboxylate]
191 to 192 | CCOCc1nc2c(N)nc3cc(-c4cccnc4)ccc3c2n1CC1CCN(C(=O)C2CCCO2)CC1 (stereo not shown) [Example 182, 2-Ethoxymethyl-7-(pyridin-3-yl)-1-{[1-(tetrahydrofuran-2-ylcarbonyl)piperidin-4-yl]methyl}-1H-imidazo[4,5-c]quinolin-4-amine]
218 to 221 | COCCc1nc2c(N)nc3cc(-c4cccnc4)ccc3c2n1CCCN1CCCC1=O [Example 183, 1-{3-[4-Amino-2-(2-methoxyethyl)-7-(pyridin-3-yl)-1H-imidazo[4,5-c]quinolin-1-yl]propyl}pyrrolidin-2-one]
